How the values were obtained:
[1] = molecular target: T1, Prostaglandin G/H synthase 2 (Homo sapiens) (UniProt P35354); test: SafetyScreen: COX2 Human Cyclooxygenase Enzymatic LeadHunter Assay, catalogue number: 4186; type: functional; conditions: Test compound concentration 10.0 uM
T1 sequence (whole entry): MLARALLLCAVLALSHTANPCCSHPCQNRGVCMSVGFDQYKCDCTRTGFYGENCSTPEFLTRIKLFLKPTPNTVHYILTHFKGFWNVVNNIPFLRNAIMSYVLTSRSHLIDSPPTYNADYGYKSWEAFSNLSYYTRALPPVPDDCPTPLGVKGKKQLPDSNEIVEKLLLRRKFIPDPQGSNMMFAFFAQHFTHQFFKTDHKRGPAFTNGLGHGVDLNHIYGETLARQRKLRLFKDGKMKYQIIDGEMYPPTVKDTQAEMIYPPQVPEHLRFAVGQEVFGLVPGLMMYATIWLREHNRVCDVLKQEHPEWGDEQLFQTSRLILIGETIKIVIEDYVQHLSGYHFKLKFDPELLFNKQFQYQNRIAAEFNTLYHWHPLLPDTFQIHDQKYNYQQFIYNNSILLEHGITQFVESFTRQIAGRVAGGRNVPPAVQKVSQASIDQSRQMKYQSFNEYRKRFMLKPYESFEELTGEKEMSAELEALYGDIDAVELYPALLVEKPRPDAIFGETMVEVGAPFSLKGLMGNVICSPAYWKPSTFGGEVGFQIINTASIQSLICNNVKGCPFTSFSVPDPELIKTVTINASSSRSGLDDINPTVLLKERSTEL

[2] = molecular target: T2, Muscarinic acetylcholine receptor M1 (Homo sapiens) (UniProt P11229); test: SafetyScreen: M1 Human Acetylcholine (Muscarinic) GPCR Binding Antagonist Radioligand LeadHunter Assay, catalogue number: 91; conditions: Test compound concentration 10.0 uM
T2 sequence (whole entry): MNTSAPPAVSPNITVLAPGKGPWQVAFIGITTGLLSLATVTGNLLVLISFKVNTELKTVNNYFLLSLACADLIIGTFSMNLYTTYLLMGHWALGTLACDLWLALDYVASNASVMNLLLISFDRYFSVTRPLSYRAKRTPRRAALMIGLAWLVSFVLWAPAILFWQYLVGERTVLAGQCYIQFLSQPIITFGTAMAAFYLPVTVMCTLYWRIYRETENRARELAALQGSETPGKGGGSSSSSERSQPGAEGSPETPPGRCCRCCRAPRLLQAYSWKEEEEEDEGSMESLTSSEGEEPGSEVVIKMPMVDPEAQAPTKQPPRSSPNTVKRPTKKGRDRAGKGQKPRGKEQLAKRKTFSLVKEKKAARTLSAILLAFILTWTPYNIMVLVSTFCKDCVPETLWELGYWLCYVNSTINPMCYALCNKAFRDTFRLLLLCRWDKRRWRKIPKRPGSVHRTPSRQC

[3] = molecular target: Beta-1 adrenergic receptor (Homo sapiens) (UniProt P08588); test: SafetyScreen: beta1 Human Adrenoceptor GPCR Binding Agonist Radioligand LeadHunter Assay, catalogue number: 18; conditions: Test compound concentration 10.0 uM
Chain of Beta-1 adrenergic receptor (Homo sapiens) (P08588 whole entry, looked up): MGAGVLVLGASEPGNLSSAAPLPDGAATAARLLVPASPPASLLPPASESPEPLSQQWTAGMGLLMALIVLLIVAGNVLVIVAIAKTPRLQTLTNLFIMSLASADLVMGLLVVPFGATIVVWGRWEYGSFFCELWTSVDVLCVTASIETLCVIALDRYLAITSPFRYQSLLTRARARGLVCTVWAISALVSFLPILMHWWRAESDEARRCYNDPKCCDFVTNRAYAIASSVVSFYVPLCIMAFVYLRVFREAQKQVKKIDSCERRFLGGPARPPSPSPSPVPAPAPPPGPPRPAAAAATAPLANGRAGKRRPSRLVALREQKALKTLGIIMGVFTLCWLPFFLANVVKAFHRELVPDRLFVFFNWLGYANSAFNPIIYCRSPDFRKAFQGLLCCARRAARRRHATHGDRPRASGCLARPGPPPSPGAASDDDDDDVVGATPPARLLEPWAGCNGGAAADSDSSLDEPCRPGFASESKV

[4] = molecular target: T3, Glucocorticoid receptor (Homo sapiens) (UniProt P04150); test: SafetyScreen: GR Human Glucocorticoid NHR Binding Agonist Radioligand LeadHunter Assay, catalogue number: 469; conditions: Test compound concentration 10.0 uM
T3 sequence (whole entry): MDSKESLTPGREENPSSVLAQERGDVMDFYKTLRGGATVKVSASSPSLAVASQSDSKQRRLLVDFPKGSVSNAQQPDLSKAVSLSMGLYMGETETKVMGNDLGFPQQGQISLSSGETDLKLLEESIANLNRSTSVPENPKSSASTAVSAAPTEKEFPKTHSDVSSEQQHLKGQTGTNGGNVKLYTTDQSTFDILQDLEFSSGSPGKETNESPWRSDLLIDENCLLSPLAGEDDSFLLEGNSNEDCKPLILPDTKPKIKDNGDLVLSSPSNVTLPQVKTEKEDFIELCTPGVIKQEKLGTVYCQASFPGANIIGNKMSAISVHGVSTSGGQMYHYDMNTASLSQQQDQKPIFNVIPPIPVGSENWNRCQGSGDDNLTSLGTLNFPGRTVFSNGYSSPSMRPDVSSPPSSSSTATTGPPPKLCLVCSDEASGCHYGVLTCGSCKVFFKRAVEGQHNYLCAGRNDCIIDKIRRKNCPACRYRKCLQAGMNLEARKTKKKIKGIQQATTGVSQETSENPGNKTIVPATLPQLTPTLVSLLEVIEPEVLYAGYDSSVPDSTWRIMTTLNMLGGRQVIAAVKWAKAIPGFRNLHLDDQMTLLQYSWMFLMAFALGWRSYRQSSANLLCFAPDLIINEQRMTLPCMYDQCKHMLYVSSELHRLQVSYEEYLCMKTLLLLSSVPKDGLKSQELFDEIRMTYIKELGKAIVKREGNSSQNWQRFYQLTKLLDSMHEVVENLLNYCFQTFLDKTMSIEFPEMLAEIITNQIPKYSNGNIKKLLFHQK

[5] = molecular target: Tyrosine-protein kinase Lck (Homo sapiens) (UniProt P06239); test: SafetyScreen: Lck Human TK Kinase Enzymatic TR-FRET [Km ATP] LeadHunter Assay, catalogue number: 2906; type: functional; conditions: Test compound concentration 10.0 uM
Chain of Tyrosine-protein kinase Lck (Homo sapiens) (P06239 2-509 limits assumed): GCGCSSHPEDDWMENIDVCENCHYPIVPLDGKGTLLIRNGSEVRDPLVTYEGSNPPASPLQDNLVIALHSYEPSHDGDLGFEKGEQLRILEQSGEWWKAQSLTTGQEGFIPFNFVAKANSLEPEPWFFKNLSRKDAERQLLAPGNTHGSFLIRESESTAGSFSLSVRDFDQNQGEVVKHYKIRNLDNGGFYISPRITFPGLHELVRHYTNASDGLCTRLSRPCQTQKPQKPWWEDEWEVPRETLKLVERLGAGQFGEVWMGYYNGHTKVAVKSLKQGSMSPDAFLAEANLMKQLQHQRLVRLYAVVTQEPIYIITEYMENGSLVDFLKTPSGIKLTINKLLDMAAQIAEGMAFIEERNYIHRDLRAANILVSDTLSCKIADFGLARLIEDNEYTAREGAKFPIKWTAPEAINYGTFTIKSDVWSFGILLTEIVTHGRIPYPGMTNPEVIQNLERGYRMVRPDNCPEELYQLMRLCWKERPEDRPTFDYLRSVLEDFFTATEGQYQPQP

[6] = molecular target: GABA-A receptor; anion channel (Rattus norvegicus) (UniProt O09028+P15431+P18506+P18508+P19969+P20236+P23574+P23576+P28471+P28473+P30191+P62813+P63079+P63138+Q91ZM7+Q9ES14); test: SafetyScreen: GABAA (Non-Selective) Rat Ion Channel [3H] Flunitrazepam Binding Agonist Radioligand LeadHunter Assay, catalogue number: 28; type: protein-complex assay; conditions: Test compound concentration 10.0 uM
[7] = molecular target: Histamine H1 receptor (Homo sapiens) (UniProt P35367); test: SafetyScreen: H1 Human Histamine GPCR Binding Antagonist Radioligand LeadHunter Assay, catalogue number: 870; conditions: Test compound concentration 10.0 uM
Chain of Histamine H1 receptor (Homo sapiens) (P35367 whole entry): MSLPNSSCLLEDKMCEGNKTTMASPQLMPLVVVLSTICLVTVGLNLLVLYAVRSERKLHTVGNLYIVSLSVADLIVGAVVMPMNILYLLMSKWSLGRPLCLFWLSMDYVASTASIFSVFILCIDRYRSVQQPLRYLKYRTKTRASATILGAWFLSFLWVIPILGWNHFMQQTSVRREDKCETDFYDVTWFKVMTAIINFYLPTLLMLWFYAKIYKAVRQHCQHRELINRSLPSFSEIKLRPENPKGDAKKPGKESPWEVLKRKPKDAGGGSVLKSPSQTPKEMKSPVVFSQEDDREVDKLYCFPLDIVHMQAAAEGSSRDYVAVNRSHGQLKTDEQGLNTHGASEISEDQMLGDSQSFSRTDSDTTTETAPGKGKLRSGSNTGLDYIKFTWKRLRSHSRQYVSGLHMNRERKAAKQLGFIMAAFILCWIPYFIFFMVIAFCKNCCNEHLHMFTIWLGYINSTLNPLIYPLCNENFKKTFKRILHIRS

[8] = molecular target: 5-hydroxytryptamine receptor 2A (Homo sapiens) (UniProt P28223); test: SafetyScreen: 5-HT2A Human Serotonin GPCR Binding Agonist Radioligand LeadHunter Assay, catalogue number: 471; conditions: Test compound concentration 10.0 uM
Chain of 5-hydroxytryptamine receptor 2A (Homo sapiens) (P28223 whole entry): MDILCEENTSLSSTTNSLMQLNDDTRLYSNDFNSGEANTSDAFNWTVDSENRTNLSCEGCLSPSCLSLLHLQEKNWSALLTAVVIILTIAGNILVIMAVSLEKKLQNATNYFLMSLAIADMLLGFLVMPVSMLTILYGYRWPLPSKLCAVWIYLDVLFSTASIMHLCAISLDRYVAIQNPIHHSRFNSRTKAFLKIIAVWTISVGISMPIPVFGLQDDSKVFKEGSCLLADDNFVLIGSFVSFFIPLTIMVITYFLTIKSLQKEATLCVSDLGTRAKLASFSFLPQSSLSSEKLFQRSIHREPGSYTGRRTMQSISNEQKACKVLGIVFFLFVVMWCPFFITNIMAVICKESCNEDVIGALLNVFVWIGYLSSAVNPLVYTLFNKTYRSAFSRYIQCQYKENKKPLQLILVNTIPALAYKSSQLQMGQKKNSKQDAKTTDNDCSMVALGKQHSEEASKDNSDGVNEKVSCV

[9] = molecular target: Neuronal acetylcholine receptor; alpha4/beta2 (Homo sapiens) (UniProt P17787+P43681); test: SafetyScreen: nAChR (alpha4/beta2) Human Ion Channel Binding Agonist Radioligand LeadHunter Assay, catalogue number: 3029; type: protein-complex assay; conditions: Test compound concentration 10.0 uM
[10] = molecular target: Delta-type opioid receptor (Homo sapiens) (UniProt P41143); test: SafetyScreen: delta (DOP) Human Opioid GPCR Binding Agonist Radioligand LeadHunter Assay, catalogue number: 114; conditions: Test compound concentration 10.0 uM
Chain of Delta-type opioid receptor (Homo sapiens) (P41143 whole entry): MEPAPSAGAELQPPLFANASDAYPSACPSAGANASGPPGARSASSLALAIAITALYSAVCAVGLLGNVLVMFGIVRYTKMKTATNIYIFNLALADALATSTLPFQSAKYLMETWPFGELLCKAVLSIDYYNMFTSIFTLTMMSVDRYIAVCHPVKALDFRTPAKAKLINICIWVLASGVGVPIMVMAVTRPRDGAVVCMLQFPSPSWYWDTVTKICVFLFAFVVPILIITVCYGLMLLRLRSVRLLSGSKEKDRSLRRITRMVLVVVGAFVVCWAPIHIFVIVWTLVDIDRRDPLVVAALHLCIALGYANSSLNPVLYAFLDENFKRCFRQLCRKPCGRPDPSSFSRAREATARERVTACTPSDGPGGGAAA

[11] = system: Voltage-gated sodium channel; test: SafetyScreen: Sodium Ion Channel Site 2 (Non-Selective) Rat Ion Channel [3H] Batrachotoxinin Binding LeadHunter Assay, catalogue number: 169; type: protein assay; conditions: at 10 µM, test compound concentration 10 uM
[12] = molecular target: Beta-2 adrenergic receptor (Homo sapiens) (UniProt P07550); test: SafetyScreen: beta2 Human Adrenoceptor GPCR Binding Antagonist Radioligand LeadHunter Assay, catalogue number: 20; conditions: Test compound concentration 10.0 uM
Chain of Beta-2 adrenergic receptor (Homo sapiens) (P07550 whole entry, looked up): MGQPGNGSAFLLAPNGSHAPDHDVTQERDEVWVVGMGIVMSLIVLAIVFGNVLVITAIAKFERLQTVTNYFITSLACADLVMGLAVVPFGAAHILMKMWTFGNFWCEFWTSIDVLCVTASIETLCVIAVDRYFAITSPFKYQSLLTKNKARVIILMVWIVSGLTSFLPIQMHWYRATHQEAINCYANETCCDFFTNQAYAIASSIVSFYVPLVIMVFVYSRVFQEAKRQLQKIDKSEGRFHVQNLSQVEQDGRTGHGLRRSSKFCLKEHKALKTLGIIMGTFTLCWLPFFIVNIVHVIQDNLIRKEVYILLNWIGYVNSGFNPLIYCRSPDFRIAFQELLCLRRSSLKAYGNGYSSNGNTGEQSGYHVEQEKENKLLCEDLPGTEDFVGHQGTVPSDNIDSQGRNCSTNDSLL

| Structure (SMILES) | inhibition [1] | inhibition [2] | inhibition [3] | inhibition [4] | inhibition [5] | inhibition [6] | inhibition [7] | inhibition [8] | inhibition [9] | inhibition [10] | Inhibition [11] | inhibition [12] |
| --- | --- | --- | --- | --- | --- | --- | --- | --- | --- | --- | --- | --- |
| Cn1ncc(-c2cc3c(N[C@@H](c4ccc5c(n4)OCCO5)C(C)(C)C)ncnc3[nH]2)c1C#N | -9% | 13% | 11% | 28% | 47% | -5% | 7% | -2% | -5% | 15% | 34% | 4% |
| C[C@H](C(=O)O)[C@@H](NC(=O)c1ncnc2[nH]ccc12)c1ccc(Br)cc1 | 7% | -1% | -5% | 3% | 4% | -4% | -8% | 1% | 0% | – | 6% | -8% |
| CC(C)[C@@H](Nc1ncnc2[nH]c(-c3cnn(C)c3C#N)cc12)c1ccc2c(n1)OCCO2 | -7% | 8% | -2% | 22% | 34% | 8% | 0% | 14% | -2% | 71% | 12% | 3% |
| CNC(=O)Cn1cc(-c2cc3c(N[C@@H](c4ccc5c(c4)S(=O)(=O)CCC5)C(C)C)ncnc3[nH]2)cn1 | 27% | 9% | 5% | 5% | 30% | 35% | -5% | 12% | – | 7% | 11% | 0% |
| CC(C)[C@H](Nc1ncnc2[nH]c(-c3cnn(C)c3C#N)cc12)c1ccc2c(n1)OCCO2 | -2% | 7% | 11% | 11% | 20% | -2% | 5% | 15% | 2% | 58% | 10% | 3% |
| CNCc1cc(-c2cc3c(N[C@@H](c4ccc5c(c4)S(=O)(=O)CCC5)C(C)C)ncnc3[nH]2)co1 | 24% | 47% | -4% | 21% | 68% | 28% | -3% | 29% | 0% | 53% | 19% | 6% |
| COc1ccc([C@H](Cc2nnn[nH]2)NC(=O)c2ncnc3[nH]ccc23)cc1 | -1% | -4% | -3% | 1% | 4% | 0% | -4% | -4% | 4% | – | -3% | -6% |
| CC(C)[C@@H](Nc1ncnc2[nH]c(C(=O)N[C@@H]3CCN(C)C3)cc12)c1ccc2c(c1)S(=O)(=O)CCC2 | 4% | 17% | 4% | 11% | 15% | 38% | 2% | 1% | -2% | – | 16% | -3% |
| CC(C)[C@H](Nc1ncnc2[nH]ccc12)c1ccc2c(c1)S(=O)(=O)CCC2 | 23% | 19% | 11% | 10% | 10% | 4% | -3% | 12% | 1% | 30% | -5% | -1% |
| Cc1nn(C)cc1-c1cc2c(N[C@H](c3ccc4c(c3)S(=O)(=O)CCC4)C(C)C)ncnc2[nH]1 | 23% | 11% | 1% | 7% | 33% | 29% | 0% | 51% | -2% | 16% | -1% | -7% |

Source: ChEMBL document CHEMBL5442334, “ASAP - In vitro safety pharmacology profile” (2024)
